Tests used:
IMR-90-derived neurons = type: cell-based, human
Source text: The disclosed technology encompasses multiple derivatives of both flupirtine and retigabine. […] The inventors provide further insight into the derivatives from both original molecules. […] By way of explanation, and in no way a limitation of the present invention, the inventors have shown that the derivatives are active in two ways: they (1) upregulate expression of the anti-apoptotic protein Bcl-2 and ceramide pathway synthesis enzymes, and (2) activate autophagy.

PC12 cells [1] = test: Etoposide-induced apoptosis in PC12 cells, cell viability; type: cell-based; settings: for viability at 1 µM / viability at 3 µM / viability at 10 µM / viability at 30 µM / viability at 0.1 µM / viability at 0.3 µM: Rattus norvegicus, PC-12, etoposide-induced apoptosis; for viability at 1 µM: 1 μM compound, read-out: % Viability 1 μM; for viability at 3 µM: 3 μM compound, read-out: % Viability 3 μM; for viability at 10 µM: 10 μM compound, read-out: % Viability 10 μM; for viability at 30 µM: 30 μM compound, read-out: % Viability 30 μM; for protective activity in WT PC12 etoposide assay: WT PC12 cells; for viability at 0.1 µM: 0.1 μM compound, vehicle 52.1 ± 7.32; for viability at 0.3 µM: 0.3 μM compound
PC12 cells [2] = test: Serum starvation-induced apoptosis in PC12 cells, cell viability; type: cell-based; settings: Rattus norvegicus, PC-12, serum starvation-induced apoptosis, PC12 cells; for viability at 1 µM: 1 μM compound, vehicle 55.04 ± 8.99, read-out: % Viability 1 μM; for viability at 3 µM: 3 μM compound, read-out: % Viability 3 μM; for viability at 10 µM: 10 μM compound, read-out: % Viability 10 μM; for viability at 30 µM: 30 μM compound, read-out: % Viability 30 μM
[3] = tested on: CLN3 siRNA knock down PC12 cells; test: Protective effect in siRNA CLN3 knock down PC12 cells; type: cell-based; settings: FIG. 3A
Source text: (§1) FIGS. 3A and 3B show the neuroprotective effect of selected compounds in phenotypic cell lines. In FIG. 3A, the protective effect is shown in siRNA CLN3 knock down PC12 cells. In FIG. 3B the protective effect is shown in wild-type (WT) and CLN3 knock down mouse fibroblasts. Values are represented as mean±SD. *P<0.05, **p<0.01, ***p<0.001 compared to vehicle control, unpaired student t test.
(§2) Protective Effect in Phenotypic Cell Lines. […] The inventors screened a number of compounds in both neuron-like CLN3 siRNA knock down PC12 cells (FIG. 3A) and CLN3 knockdown mouse fibroblasts (FIG. 3B) as phenotypic models of JNCL. […] FIGS. 3A and 3B show the neuroprotective effect of selected compounds in phenotypic cell lines. In FIG. 3A, the protective effect is shown in siRNA CLN3 knock down PC12 cells. In FIG. 3B the protective effect is shown in wild-type (WT) and CLN3 knock down mouse fibroblasts. Values are represented as mean±SD. *P<0.05, **p<0.01, ***p<0.001 compared to vehicle control, unpaired student t test. […] Selected derivatives show greater protective effect than flupirtine in patient lympoblast cells in CLN1, CLN2, CLN3, CLN6 and CLN8 disease (FIGS. 4A to 4E). FIGS. 4A to 4E show the percentage of patient lymphoblast cells (%), using Trypan Blue dye with Flupirtine (20 μM, vehicle %1 EtOH), drug 3 (20 μM, vehicle %1 EtOH), drug 5 (50 μM, vehicle %4 DMSO) or drug 6 (20 μM, vehicle %4 DMSO) at 24 h. CLN1 (FIG. 4A), CLN2 (FIG. 4B), CLN3 (FIG. 4C), CLN6 (FIG. 4D), and CLN8 (FIG. 4E).

primary neurons = settings: cited from earlier work
[4] = tested on: CLN3 knockdown mouse fibroblasts; test: Protective effect in CLN3 knock down mouse fibroblasts; type: cell-based; settings: FIG. 3B
Source text: as §1, §2

PC12 cells [5] = test: ROS in PC12 cells, CellROX green / DAPI staining after H2O2; type: cell-based; settings: 400 μM H2O2 for 4 hours, FIG. 5A
Procedure: PC12 cells stained with CellROX and DAPI-blue nuclear stain. Greater intensity of green fluorescence indicates greater levels of ROS. Visualized through a microscope (40× magnification, bar=100 μM).
While flupirtine and retigabine are known antioxidants the inventors have shown (FIGS. 5A and 5B) that neuroprotective derivatives operate by a different mechanism of action. […] PC12 cells stained with CellROX and DAPI-blue nuclear stain. Greater intensity of green fluorescence indicates greater levels of ROS. Visualized through a microscope (40× magnification, bar=100 μM).

For `CCOC(=O)Nc1ccc(NCc2ccc(Cl)cc2)nc1N` [NK-4-3, Ethyl (2-amino-6-((4-chlorobenzyl)amino)pyridin-3-yl)carbamate], which “activity in iPSC/IMR-90-derived neurons” value (IMR-90-derived neurons; 15 ug/mL etoposide for 36 hours, FIG. 2) is on record?
Its value is “less active”.

What about the viability at 1 µM (PC12 cells [1]; PC12 cells) of the same compound?
The viability at 1 µM was 65.7 ± 16.2%.

And the viability at 3 µM (PC12 cells [1]; PC12 cells)?
The viability at 3 µM was 64.3 ± 4.28%.

And the viability at 10 µM (PC12 cells [1]; PC12 cells)?
The viability at 10 µM was 52.6 ± 10.3%.

What about the viability at 30 µM (PC12 cells [1]; PC12 cells) of the same compound?
The viability at 30 µM was 41.5 ± 6.14%.

What about the “protective activity in WT PC12 etoposide assay” value (PC12 cells [1]) of the same compound?
Its value is “less active than compounds NK-10-1 and NK-12-1”.

And the viability at 1 µM (PC12 cells [2])?
Its viability at 1 µM is 78 ± 9.61%.

What about the viability at 3 µM (PC12 cells [2]) of the same compound?
Its viability at 3 µM is 79.3 ± 5.5%.

What about the viability at 10 µM (PC12 cells [2]) of the same compound?
Its viability at 10 µM is 86.5 ± 11.5%.

And the viability at 30 µM (PC12 cells [2])?
The viability at 30 µM was 86.6 ± 5.32%.

For `CCOC(=O)Nc1ccc(NCc2ccc(C(F)(F)F)cc2)nc1N` [NK-40-3, Ethyl (2-amino-6-((4-(trifluoromethyl)benzyl)amino)pyridin-3-yl)carbamate], which “concentration with neuroprotective activity (as low as)” value (IMR-90-derived neurons; human IMR-90-derived neurons) is on record?
The value was 0.1 µM.

And the “concentration providing protection from etoposide-induced cell death” value (PC12 cells [1]; PC12 cells)?
Its value is 0.1 µM.

What about the viability at 0.1 µM (PC12 cells [1]; PC12 cells) of the same compound?
Its viability at 0.1 µM is 85.8 ± 11.8%.

And the viability at 0.3 µM (PC12 cells [1]; PC12 cells)?
The viability at 0.3 µM was 109 ± 17.3%.

What about the viability at 1 µM (PC12 cells [1]; PC12 cells) of the same compound?
The viability at 1 µM was 82.7 ± 8.82%.

What about the viability at 3 µM (PC12 cells [1]; PC12 cells) of the same compound?
The viability at 3 µM was 71.5 ± 4.99%.

And the viability at 10 µM (PC12 cells [1]; PC12 cells)?
Its viability at 10 µM is 97.3 ± 22.8%.

And the viability at 30 µM (PC12 cells [1]; PC12 cells)?
The viability at 30 µM was 106 ± 15.8%.

Which results are given for `CCOC(=O)Nc1ccc(NCc2ccc(F)cc2)nc1N` [NK-1-4, Ethyl (2-amino-6-((4-fluorobenzyl)amino)pyridin-3-yl)carbamate, reference compound]?
protective activity [3]: protective activity; viability at 0.1 µM (PC12 cells [1]; PC12 cells): 67 ± 5.88%; viability at 0.3 µM (PC12 cells [1]; PC12 cells): 64.4 ± 9.35%; viability at 1 µM (PC12 cells [1]; PC12 cells): 73.2 ± 13.9%; viability at 3 µM (PC12 cells [1]; PC12 cells): 78.1 ± 12.9%; viability at 10 µM (PC12 cells [1]; PC12 cells): 76.9 ± 17.4%; viability at 30 µM (PC12 cells [1]; PC12 cells): 71.3 ± 18%; concentration showing protective activity against Abeta 25-35 apoptotic cell death (primary neurons): 1 µg/mL; viability at 1 µM (PC12 cells [2]): 85.4 ± 14%; viability at 3 µM (PC12 cells [2]): 82 ± 14.5%; viability at 10 µM (PC12 cells [2]): 81.5 ± 13%; viability at 30 µM (PC12 cells [2]): 89.9 ± 17.1%; protective activity [4]: protective activity; amelioration of reactive oxygen species (ROS) (PC12 cells [5]): do ameliorate ROS

What does the source list for `C=CCOC(=O)Nc1ccc(NCc2ccc(F)cc2)nc1N` [NK-12-1, Allyl 6-(4-fluorobenzylamino)-2-aminopyridin-3-ylcarbamate]?
protective activity [3]: greater activity than flupirtine; viability at 1 µM (PC12 cells [1]; PC12 cells): 65.5 ± 8.19%; viability at 3 µM (PC12 cells [1]; PC12 cells): 86.8 ± 9.05%; viability at 10 µM (PC12 cells [1]; PC12 cells): 67.5 ± 22.6%; viability at 30 µM (PC12 cells [1]; PC12 cells): 45.2 ± 8.92%; protective activity in WT PC12 etoposide assay (PC12 cells [1]): greater neuroprotective activity; viability at 1 µM (PC12 cells [2]): 108 ± 10.3%; viability at 3 µM (PC12 cells [2]): 88.6 ± 8.26%; viability at 10 µM (PC12 cells [2]): 82.2 ± 11.8%; viability at 30 µM (PC12 cells [2]): 92.6 ± 12.3%; protective activity [4]: greater activity than flupirtine; amelioration of reactive oxygen species (ROS) (PC12 cells [5]): no amelioration of reactive oxygen species (ROS)

— US11369593B2 (Texas Tech University System, priority 2017, dated 2022)
